ChEMBL document CHEMBL1201862, “PubChem BioAssay data set” (2004)
Calls of active or inactive are those of the source.

Legend:
Paired box protein Pax-8 = Paired box protein Pax-8 (Homo sapiens, UniProt Q06710); assay: inhibitors of PAX8-driven TPO luciferase reporter, dose response, RMG-I cells, cherry-pick (AID 687027); type: functional, cell-based;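 further: luciferase reporter driven by Pax8 target thyroperoxidase promoter measured by SteadyGlo luminescence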
BJ [1] = assay: cytotoxicity toward BJ-TERT fibroblasts, dose response, cell-based, RAS-independent, luminescence (AID 1933); type: functional; details: Homo sapiens
BJ [2] = assay: cells; type: functional, cell-based; details: Homo sapiens
BJ [3] = assay: cytotoxicity toward BJ-TERT-LT-ST fibroblasts, dose response, cell-based, RAS-independent, luminescence (AID 1935); type: functional; details: Homo sapiens;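 further: BJ fibroblasts immortalized with TERT plus LT and ST oncogenes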
[4] = cytotoxicity toward DRD oncogenic fibroblasts, dose response, cell-based, non-viral oncogenic, luminescence (AID 1934); type: functional; details: Homo sapiens
Nonstructural protein 1 = Nonstructural protein 1 (Influenza A virus, UniProt Q194T2); type: functional, Influenza A virus (A/California/07/2009(H1N1))
Sequence of Nonstructural protein 1 (Q194T2 whole entry): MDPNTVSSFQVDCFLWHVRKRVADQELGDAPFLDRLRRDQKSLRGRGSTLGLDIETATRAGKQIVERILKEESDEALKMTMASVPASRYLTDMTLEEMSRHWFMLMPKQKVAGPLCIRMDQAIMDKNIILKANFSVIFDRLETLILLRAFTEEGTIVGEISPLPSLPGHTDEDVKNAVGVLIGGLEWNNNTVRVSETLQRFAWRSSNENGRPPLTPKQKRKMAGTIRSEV

[5] = inhibitors of intracellular T. cruzi replication, confirmation, NIH3T3 host cells, beta-gal luminescence (AID 2044); type: functional, cell-based;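 further: intracellular parasites grown in NIH/3T3 mouse fibroblasts as host cells; luminescent beta-galactosidase reporter signal from transgenic T. cruzi replicating inside host cells; inhibitors lower the luminescence signal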
[6] = cytotoxicity toward NIH3T3 fibroblasts, dose response, counter-screen, cell-based, ATP luminescence, mouse fibroblasts (AID 2010); type: functional;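 further: cells exposed to compound for about 90 hours before reading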
Genome polyprotein = Genome polyprotein (dengue virus type 2, UniProt P29990); assay: Dengue-2 NS5 methyltransferase inhibitors, primary screen, biochemical, confirmation dose response (AID 588689); type: functional
Sequence of Genome polyprotein (P29990 2492-3391 limits assumed): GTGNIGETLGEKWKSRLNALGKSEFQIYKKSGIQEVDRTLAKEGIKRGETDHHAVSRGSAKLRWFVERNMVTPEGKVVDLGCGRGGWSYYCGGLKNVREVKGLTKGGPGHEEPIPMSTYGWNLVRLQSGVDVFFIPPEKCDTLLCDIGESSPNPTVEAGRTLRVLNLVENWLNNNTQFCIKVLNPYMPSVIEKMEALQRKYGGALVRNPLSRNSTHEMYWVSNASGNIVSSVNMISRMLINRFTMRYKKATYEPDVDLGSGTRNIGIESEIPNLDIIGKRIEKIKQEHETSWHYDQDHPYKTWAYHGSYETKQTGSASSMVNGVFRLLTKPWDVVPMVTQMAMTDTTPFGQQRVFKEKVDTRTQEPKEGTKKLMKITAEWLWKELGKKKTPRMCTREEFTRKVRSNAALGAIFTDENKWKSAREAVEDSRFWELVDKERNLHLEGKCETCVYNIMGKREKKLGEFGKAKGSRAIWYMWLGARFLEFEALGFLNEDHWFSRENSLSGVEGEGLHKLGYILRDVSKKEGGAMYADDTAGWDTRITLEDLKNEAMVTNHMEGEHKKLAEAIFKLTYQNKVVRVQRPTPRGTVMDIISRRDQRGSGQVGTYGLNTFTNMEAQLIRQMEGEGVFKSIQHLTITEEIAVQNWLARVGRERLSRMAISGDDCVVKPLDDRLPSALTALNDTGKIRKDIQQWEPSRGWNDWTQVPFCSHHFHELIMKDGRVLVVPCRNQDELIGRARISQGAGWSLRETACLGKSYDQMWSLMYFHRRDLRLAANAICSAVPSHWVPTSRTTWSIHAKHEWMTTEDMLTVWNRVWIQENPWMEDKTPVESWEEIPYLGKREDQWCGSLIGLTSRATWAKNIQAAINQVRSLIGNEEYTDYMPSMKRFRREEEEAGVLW

[7] = Shn3 3'UTR reporter inhibitors, dose response, cell-based, Clone20 osteoblasts, firefly luciferase, cherry-picked (AID 624132); type: functional;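 further: firefly luciferase luminescence from reporter carrying the Shn3 3'UTR in osteoblasts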
[8] = control 3'UTR Renilla luciferase suppression, dose response, counter-screen for Shn3 inhibitor project, cell-based, Clone20-Shn3RL, cherry-picked (AID 624133); type: functional
Cytochrome P450 2D6 = Cytochrome P450 2D6 (Homo sapiens, UniProt P10635);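 further: CYP2D6 member of a cytochrome P450 panel assay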
Sequence of Cytochrome P450 2D6 (P10635 whole entry): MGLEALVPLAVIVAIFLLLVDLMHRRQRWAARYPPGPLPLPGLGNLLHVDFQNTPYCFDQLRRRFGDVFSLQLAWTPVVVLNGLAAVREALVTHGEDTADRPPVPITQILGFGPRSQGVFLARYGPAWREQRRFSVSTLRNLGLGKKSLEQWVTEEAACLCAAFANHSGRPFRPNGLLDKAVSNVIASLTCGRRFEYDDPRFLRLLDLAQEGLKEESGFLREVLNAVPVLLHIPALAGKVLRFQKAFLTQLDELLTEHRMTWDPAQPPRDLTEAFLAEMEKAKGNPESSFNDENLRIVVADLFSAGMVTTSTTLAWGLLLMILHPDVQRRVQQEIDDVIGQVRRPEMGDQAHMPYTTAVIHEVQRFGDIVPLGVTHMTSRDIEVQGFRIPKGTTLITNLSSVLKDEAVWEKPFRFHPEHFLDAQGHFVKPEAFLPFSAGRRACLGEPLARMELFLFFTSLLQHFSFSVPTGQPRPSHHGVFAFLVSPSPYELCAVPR

Cytochrome P450 1A2 = biological target: T1, Cytochrome P450 1A2 (Homo sapiens, UniProt P05177);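 further: PubChem cytochrome P450 panel assay, CYP1A2 panel member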
T1 sequence (P05177 whole entry): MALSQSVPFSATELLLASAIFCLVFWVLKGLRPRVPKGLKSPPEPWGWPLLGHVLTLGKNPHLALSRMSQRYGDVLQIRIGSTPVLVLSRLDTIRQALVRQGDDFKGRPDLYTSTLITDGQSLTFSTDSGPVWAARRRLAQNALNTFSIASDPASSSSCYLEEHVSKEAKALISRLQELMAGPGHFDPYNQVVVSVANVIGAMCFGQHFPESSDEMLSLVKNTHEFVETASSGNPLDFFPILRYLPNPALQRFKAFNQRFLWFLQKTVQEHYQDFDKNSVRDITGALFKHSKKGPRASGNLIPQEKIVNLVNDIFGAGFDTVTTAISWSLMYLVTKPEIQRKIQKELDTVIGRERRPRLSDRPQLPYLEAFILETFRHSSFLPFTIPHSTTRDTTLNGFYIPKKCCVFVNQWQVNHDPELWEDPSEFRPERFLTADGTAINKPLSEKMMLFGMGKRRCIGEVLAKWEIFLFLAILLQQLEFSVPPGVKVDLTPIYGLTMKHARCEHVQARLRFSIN

Cytochrome P450 3A4 = Cytochrome P450 3A4 (Homo sapiens, UniProt P08684);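 further: CYP3A4 tested as one member of a cytochrome P450 panel screen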
Sequence of Cytochrome P450 3A4 (P08684 whole entry): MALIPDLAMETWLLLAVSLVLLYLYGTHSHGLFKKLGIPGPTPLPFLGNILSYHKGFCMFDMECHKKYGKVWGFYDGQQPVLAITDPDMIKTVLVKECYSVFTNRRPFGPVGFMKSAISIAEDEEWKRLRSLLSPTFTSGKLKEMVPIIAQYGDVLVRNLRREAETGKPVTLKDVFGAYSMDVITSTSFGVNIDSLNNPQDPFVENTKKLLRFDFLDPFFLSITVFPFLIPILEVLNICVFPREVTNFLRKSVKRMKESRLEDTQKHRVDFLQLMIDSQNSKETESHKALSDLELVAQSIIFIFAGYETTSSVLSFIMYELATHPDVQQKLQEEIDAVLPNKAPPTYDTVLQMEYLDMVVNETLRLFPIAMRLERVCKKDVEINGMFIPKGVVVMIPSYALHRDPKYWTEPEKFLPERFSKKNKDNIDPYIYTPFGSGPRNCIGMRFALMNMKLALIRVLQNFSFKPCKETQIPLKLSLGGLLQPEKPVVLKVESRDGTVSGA

Cytochrome P450 2C9 = Cytochrome P450 2C9 (Homo sapiens, UniProt P11712)
Sequence of Cytochrome P450 2C9 (P11712 whole entry): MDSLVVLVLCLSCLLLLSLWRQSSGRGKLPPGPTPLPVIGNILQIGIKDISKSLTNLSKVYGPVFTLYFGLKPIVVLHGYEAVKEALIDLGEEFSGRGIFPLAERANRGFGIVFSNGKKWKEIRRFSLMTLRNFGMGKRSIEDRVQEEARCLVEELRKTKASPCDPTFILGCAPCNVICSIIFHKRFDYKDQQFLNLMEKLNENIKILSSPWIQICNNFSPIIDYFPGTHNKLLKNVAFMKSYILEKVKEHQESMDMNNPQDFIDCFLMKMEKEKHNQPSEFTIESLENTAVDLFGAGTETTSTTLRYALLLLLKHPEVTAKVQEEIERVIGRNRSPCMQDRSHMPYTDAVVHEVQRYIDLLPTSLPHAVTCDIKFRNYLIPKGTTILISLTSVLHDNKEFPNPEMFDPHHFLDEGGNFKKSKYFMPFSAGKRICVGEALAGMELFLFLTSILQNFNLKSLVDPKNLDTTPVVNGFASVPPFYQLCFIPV

Cytochrome P450 2C19 = Cytochrome P450 2C19 (Homo sapiens, UniProt P33261); assay: Cytochrome panel assay with activity outcomes. Panel member name: p450-cyp2c19 Compounds with AC50 equal or less than 10 uM are considered active; type: functional; details: read-out: AC50
Sequence of Cytochrome P450 2C19 (P33261 whole entry): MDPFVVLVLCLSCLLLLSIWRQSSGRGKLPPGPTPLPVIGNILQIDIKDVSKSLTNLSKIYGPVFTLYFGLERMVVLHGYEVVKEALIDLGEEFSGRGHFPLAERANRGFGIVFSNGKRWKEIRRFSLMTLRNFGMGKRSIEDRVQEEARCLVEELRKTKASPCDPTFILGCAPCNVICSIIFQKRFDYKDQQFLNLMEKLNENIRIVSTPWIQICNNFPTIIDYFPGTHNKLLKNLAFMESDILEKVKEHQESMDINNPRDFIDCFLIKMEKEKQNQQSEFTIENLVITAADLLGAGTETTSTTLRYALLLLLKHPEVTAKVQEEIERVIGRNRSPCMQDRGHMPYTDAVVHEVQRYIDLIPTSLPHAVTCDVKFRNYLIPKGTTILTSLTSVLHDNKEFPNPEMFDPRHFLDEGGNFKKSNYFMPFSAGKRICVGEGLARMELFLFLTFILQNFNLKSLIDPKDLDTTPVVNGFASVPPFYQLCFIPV

[9] = microbe, parasite or virus in culture; type: functional; details: Mycobacterium tuberculosis
[10] = HepG2 cell cytotoxicity, dose response, cytotoxicity control for Shn3 inhibitor project, CellTiter-Glo, cherry-picked (AID 624134); type: functional, cell-based
[11] = biological target: T2, Carboxy-terminal domain RNA polymerase II polypeptide A small phosphatase 1 (Homo sapiens, UniProt Q9GZU7); assay: inhibitors of CTDSP1, concentration-response testing, biochemical assay, absorbance-based, actives from ultra-high-throughput screening (AID 540297); type: functional
T2 sequence (Q9GZU7 whole entry): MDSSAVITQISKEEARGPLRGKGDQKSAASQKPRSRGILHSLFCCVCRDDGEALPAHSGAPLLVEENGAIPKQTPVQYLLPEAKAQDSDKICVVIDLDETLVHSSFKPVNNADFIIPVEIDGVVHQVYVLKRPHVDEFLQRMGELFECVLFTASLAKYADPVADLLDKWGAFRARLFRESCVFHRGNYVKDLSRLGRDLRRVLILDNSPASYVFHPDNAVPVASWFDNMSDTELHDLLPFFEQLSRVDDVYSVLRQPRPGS

[12] = inhibitors of firefly luciferase expression or activity, dose response, H4 neuroglioma cells, luminescence (AID 1990); type: functional, cell-based
[13] = Luminescence Cell-Based Dose Response HTS to Identify Inhibitors of 5'UTR Stem-Loop Driven Prion Protein mRNA Translation in H4 Neuroglioblastoma Cells. [Related pubchem assays: 1827 (Project Summary), 1813 (Primary HTS)]; type: functional
[14] = inhibitors of SNCA 5'UTR-driven reporter translation, confirmation, H4 neuroglioma cells, luminescence (AID 1988); type: functional, cell-based
[15] = Luminescence Cell-Based Dose Retest to Confirm Inhibitors of Cancer Stem Cells. [Related pubchem assays (depositor defined):AID2717, AID2721]; type: functional; details: Homo sapiens
[16] = biological target: FAD-linked sulfhydryl oxidase ALR (Homo sapiens, UniProt P55789); assay: inhibitors of human ALR sulfhydryl oxidase, dose response, biochemical, H2O2 detection, luminescence, cherry-pick (AID 493248)
Sequence of FAD-linked sulfhydryl oxidase ALR (P55789 whole entry): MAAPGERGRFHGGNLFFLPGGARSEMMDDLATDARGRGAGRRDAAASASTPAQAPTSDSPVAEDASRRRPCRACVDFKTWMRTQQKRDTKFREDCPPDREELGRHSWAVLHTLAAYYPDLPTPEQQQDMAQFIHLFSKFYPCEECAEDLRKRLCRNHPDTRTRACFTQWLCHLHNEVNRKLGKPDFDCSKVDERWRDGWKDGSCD

HeLa = assay: HeLa cell cytotoxicity, dose response, cytotoxicity control for MITF activator project, CellTiter-Glo luminescence, cherry-pick samples (AID 540259); type: functional, cell-based; details: Homo sapiens
H9c2 = assay: cells; type: functional, cell-based; details: Rattus norvegicus, H9c2, Myocardium;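 further: confirmatory concentration-response retest of ultra-high-throughput screening hits for modulation of myocardial damage; cell death induced by hydrogen peroxide oxidative stress; compound pretreatment for 60 min then peroxide exposure for 2 h; potency is for protecting the cells against peroxide damage rather than for killing them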
[17] = biological target: Luciferin 4-monooxygenase (Photinus pyralis, UniProt P08659); assay: firefly luciferase enzyme inhibitors, dose response, biochemical, luminescence (AID 1891)
Sequence of Luciferin 4-monooxygenase (P08659 whole entry): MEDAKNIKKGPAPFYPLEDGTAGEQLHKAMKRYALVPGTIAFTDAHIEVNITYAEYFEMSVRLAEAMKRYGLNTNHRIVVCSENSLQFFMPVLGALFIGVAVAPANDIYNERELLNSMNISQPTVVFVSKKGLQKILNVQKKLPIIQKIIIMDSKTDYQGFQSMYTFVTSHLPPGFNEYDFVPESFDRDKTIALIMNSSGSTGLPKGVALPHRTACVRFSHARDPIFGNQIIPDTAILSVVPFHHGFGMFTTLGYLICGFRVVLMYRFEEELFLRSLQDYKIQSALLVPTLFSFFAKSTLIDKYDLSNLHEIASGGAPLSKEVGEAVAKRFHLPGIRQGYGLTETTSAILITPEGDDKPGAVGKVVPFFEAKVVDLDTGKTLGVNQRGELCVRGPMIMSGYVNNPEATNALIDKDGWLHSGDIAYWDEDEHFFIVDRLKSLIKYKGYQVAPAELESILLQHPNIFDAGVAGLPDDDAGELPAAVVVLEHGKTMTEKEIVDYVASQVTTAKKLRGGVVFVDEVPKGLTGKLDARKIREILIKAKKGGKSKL

[18] = Luminescence Cell-Based Dose Confirmation HTS to Identify Inhibitors of Platelet Dense Granule Release. [Related pubchem assays: 1663 (Primary HTS), 1678 (Summary of Project)]; type: functional
[19] = biological target: T3, Rac GTPase-activating protein 1 (Homo sapiens, UniProt Q9H0H5); assay: MgcRacGAP GTPase-activating activity inhibitors, confirmation, biochemical, ADP Hunter fluorescence, primary and confirmatory (AID 624330); type: functional
T3 sequence (Q9H0H5 whole entry): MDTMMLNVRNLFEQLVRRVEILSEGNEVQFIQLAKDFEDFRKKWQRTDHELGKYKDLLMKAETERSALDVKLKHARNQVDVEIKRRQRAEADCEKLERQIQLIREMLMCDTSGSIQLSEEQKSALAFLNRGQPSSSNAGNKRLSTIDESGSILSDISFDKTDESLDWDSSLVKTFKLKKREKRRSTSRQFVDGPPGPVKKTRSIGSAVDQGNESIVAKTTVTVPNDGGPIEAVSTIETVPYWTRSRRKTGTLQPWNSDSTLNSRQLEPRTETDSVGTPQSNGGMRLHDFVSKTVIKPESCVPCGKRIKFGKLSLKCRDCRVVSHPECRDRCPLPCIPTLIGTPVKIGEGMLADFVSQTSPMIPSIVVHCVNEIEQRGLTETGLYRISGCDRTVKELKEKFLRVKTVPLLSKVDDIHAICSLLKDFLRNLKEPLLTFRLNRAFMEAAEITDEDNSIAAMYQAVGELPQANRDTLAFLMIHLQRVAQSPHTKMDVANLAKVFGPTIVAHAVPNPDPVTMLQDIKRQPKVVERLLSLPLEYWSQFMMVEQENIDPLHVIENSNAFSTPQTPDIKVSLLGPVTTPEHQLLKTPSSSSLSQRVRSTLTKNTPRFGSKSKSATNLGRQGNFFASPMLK

[20] = P. falciparum Dd2 growth inhibitors, dose response, SYBR Green, dry powder samples, set 9 (AID 1159568); type: functional, cell-based

Sequence of Paired box protein Pax-8 (Q06710 whole entry): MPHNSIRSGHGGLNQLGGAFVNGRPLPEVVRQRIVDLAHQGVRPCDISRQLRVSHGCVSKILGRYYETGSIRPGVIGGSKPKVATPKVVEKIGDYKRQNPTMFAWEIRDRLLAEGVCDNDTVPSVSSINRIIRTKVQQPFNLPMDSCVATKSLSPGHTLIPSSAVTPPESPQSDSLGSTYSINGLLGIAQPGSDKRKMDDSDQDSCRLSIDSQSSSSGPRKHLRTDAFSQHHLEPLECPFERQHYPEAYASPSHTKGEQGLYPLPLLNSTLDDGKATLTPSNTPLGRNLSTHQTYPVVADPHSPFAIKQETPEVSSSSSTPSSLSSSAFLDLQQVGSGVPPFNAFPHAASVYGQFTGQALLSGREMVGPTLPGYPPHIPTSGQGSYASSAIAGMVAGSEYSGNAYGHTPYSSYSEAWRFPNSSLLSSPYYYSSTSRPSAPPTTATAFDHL

C[C@@H]1CCCCO[C@@H](CN(C)Cc2ccc(C(F)(F)F)cc2)[C@H](C)CN([C@H](C)CO)C(=O)c2cc(NS(=O)(=O)c3ccc(Cl)cc3)ccc2O1
AC50 (Paired box protein Pax-8): 8.48 µM (active)

COc1cc(C(=O)c2cocc2C(=O)c2ccc3c(c2)OCO3)cc(OC)c1OC
EC50 (BJ [1]): 2.71 µM (active) | EC50 (BJ [2]): 38.6 µM (inconclusive) | EC50 (BJ [3]): 2.57 µM (inconclusive) | EC50 [4]: 1.45 µM (active)

COc1cccc(/C=N/N2C(=O)CSC2=S)c1O
IC50 (Nonstructural protein 1): 2.19 µM (active)

C=CS(=O)(=O)c1sc(Cl)c(N2CCOCC2)c1[N+](=O)[O-]
EC50 [5]: 5.42 µM (active) | EC50 [6]: 7.27 µM (active) | IC50 (Genome polyprotein): 11 µM (active) | AC50 [7]: 1.31 µM (active) | AC50 [8]: 13.3 µM (active)

CCNc1ncc2nc(-c3cn(C)c4ccccc34)c(=O)n(-c3ccccc3)c2n1
AC50 (Cytochrome P450 2D6): 25.1 µM (inconclusive) | AC50 (Cytochrome P450 1A2): 15.8 µM (inconclusive) | AC50 (Cytochrome P450 3A4): 6.31 µM (inconclusive) | AC50 (Cytochrome P450 2C9): inconclusive

CC(=O)c1cccc(NC(=O)Cc2ccc3c(c2)CCCC3)c1
AC50 (Cytochrome P450 2C19): 3.16 µM (inconclusive) | AC50 (Cytochrome P450 2D6): 4.47 µM (inconclusive) | AC50 (Cytochrome P450 1A2): 25.1 µM (inconclusive) | AC50 (Cytochrome P450 2C9): inconclusive

Cc1ccc(C(=O)c2cc3ccccc3o2)cc1[N+](=O)[O-]
EC50 (BJ [1]): > 150 µM (not active) | EC50 (BJ [2]): > 150 µM (not active) | EC50 (BJ [3]): > 150 µM (inconclusive) | EC50 [4]: > 150 µM (not active)

CCNC(=O)C(=O)N/N=C/c1cc([N+](=O)[O-])ccc1O
IC50 (Nonstructural protein 1): 2.44 µM (active)

O=S1(=O)N=C(N/N=C/c2ccccn2)c2ccccc21
IC50 (Nonstructural protein 1): 3.27 µM (active)

COC(=O)C1=CN(c2cccc(C)c2)C=C(C(=O)OC)C1c1cc(OC)c(O)c([N+](=O)[O-])c1
IC50 (Genome polyprotein): 56.5 µM (active)

CC(C)(C)C(=O)N1CCN(c2ccc(NC(=O)c3ccc([N+](=O)[O-])o3)cc2)CC1
CC50 [9]: 2.96 µM (active) | AC50 [7]: 2.45 µM (active) | AC50 [10]: > 70 µM (inactive) | AC50 [8]: 7.74 µM (active)

O=C(Cc1ccc(Cl)cc1)Nc1ccc(N2CCN(C(=O)c3ccco3)CC2)cc1
AC50 [7]: > 70 µM (inactive) | AC50 [10]: > 70 µM (inactive) | AC50 [8]: 6.62 µM (active)

CCC(=O)c1ccc(OCC(=O)Nc2ccccc2N2CCCCC2)cc1
EC50 (BJ [1]): > 150 µM (not active) | EC50 (BJ [2]): 35.6 µM (active) | EC50 (BJ [3]): > 150 µM (not active) | EC50 [4]: > 150 µM (not active)

COc1ccc(OCC(=O)NNC(=O)c2ccc(-c3ccccc3)cc2)cc1
IC50 [11]: 7.77 µM (active) | AC50 (Cytochrome P450 2C9): inconclusive

C=CC[C@H](CC(=O)N(CCO)Cc1ccccc1)C(=O)N[C@@H](COC(=O)[C@H](CC=C)CC(=O)OC(C)(C)C)Cc1c[nH]c2ccccc12
AC50 (Paired box protein Pax-8): 15.9 µM (active)

COc1ccc(C2/C=C\CN(S(=O)(=O)c3ccc(C)cc3)[C@H](Cc3ccccc3)C(=O)N2Cc2ccc(F)cc2)cc1 (stereo partly specified)
AC50 [7]: 12.9 µM (active) | AC50 [10]: > 70 µM (inactive) | AC50 [8]: 25.5 µM (active)

CCCCCc1cc(=O)oc2c(C(CCN(CC)CC)c3ccc(N(C)C)cc3)c(OC)cc(OC)c12 (stereo unspecified)
IC50 (Nonstructural protein 1): 9.17 µM (active)

O=C(CN1C(=O)c2ccccc2C1=O)NCC(=O)OCC(=O)c1ccc(Br)cc1
AC50 (Cytochrome P450 3A4): 3.55 µM (inconclusive) | AC50 (Cytochrome P450 2C9): inconclusive

CCOC(=O)C1=NN(c2ccccc2)C(=O)/C1=C\c1ccc(N(C)C)cc1
IC50 (Nonstructural protein 1): > 100 µM (active)

O=C(Cn1cncn1)N/N=C/c1ccccc1O
IC50 (Nonstructural protein 1): 22.1 µM (active)

CNc1nc(Cl)nc(NC(C)(C)C)n1
EC50 [12]: 12.7 µM (active) | EC50 [13]: > 120 µM (not active) | EC50 [14]: > 120 µM (not active) | AC50 (Cytochrome P450 2C9): inconclusive

Clc1ccc(N/N=C/c2cccnc2)cc1
AC50 [15]: 4.65 µM (active) | AC50 [16]: 0.426 µM (active) | AC50 (HeLa): 41.7 µM (active)

O=C1NC(=O)C(=Cc2ccc3ccccc3c2)C(=O)N1
IC50 (Genome polyprotein): 50.8 µM (active)

COc1cc(-c2cnc3c(NC=O)cc(-c4cccc(NC(C)=O)c4)cn23)cc(OC)c1OC
IC50 (H9c2): > 79 µM (inactive) | AC50 (Paired box protein Pax-8): 2.88 µM (active)

Oc1ccc(/C=N/Nc2cccc(Cl)n2)c(O)c1
EC50 [17]: 1.66 µM (active) | EC50 [18]: 1.39 µM (active) | AC50 (HeLa): 316 µM (active) | IC50 [19]: 29 µM (active)

CC(=O)N=C(N)Nc1nc(=O)c2ccccc2s1
AC50 (HeLa): 69.2 µM (active)

COc1ccc2c3c([nH]c2c1)[C@H](CO)N(C(C)=O)CC31CCN(C(=O)Nc2ccc(F)cc2F)CC1
AC50 [20]: 0.548 µM (active)

Cn1c(=O)c2cc(S(=O)(=O)NCCC(=O)NCc3ccccc3Cl)ccc2n(C)c1=O
AC50 (Cytochrome P450 2D6): 17.8 µM (inconclusive) | AC50 (Cytochrome P450 2C9): inconclusive
